The source of these data is ChEMBL document CHEMBL4373724, “An overview of recent progress in siderophore-antibiotic conjugates” (2019).

As usually defined, the MIC90 is the lowest concentration that inhibits either 90% of growth or 90% of the strains tested, depending on the study. High values mean weaker potency, low ones greater potency. By MIC is commonly meant the lowest concentration that inhibits growth of the organism. Low values mean inhibition by little substance, high ones a need for much substance.

Common to all, as to assay type: functional
Assay [1] concerns Pseudomonas aeruginosa. Nature of the assay: Antimicrobial activity against Pseudomonas aeruginosa under iron-sufficient condition by CLSI protocol based broth microdilution method.
Assay [2] concerns Pseudomonas aeruginosa. Briefly: Antimicrobial activity against Pseudomonas aeruginosa under iron-deficient condition by CLSI protocol based broth microdilution method. (In general: Dilution methods test growth across graded concentrations, often in twofold steps.)
Assay [3] relates to Pseudomonas aeruginosa. Briefly: Antimicrobial activity against Pseudomonas aeruginosa KW799 under iron-sufficient condition by CLSI protocol based broth microdilution method.
The test system of assay [4] is Pseudomonas aeruginosa. Briefly: Antimicrobial activity against Pseudomonas aeruginosa KW799 under iron-deficient condition by CLSI protocol based broth microdilution method.
Assay [5] relates to Pseudomonas aeruginosa. Briefly: Antimicrobial activity against Pseudomonas aeruginosa 61 under iron-sufficient condition by CLSI protocol based broth microdilution method.
Assay [6] relates to Pseudomonas aeruginosa. Briefly: Antimicrobial activity against Pseudomonas aeruginosa 61 under iron-deficient condition by CLSI protocol based broth microdilution method.
Assay [7] has as its system Pseudomonas aeruginosa. Briefly: Antimicrobial activity against Pseudomonas aeruginosa PAO1 under iron-sufficient condition by CLSI protocol based broth microdilution method.
Assay [8] deals with Pseudomonas aeruginosa. Nature of the assay: Antimicrobial activity against Pseudomonas aeruginosa PAO1 under iron-deficient condition by CLSI protocol based broth microdilution method.
Assay [9] concerns Pseudomonas aeruginosa. Briefly: Antimicrobial activity against Pseudomonas aeruginosa PA4 under iron-sufficient condition by CLSI protocol based broth microdilution method.
Assay [10] concerns Pseudomonas aeruginosa. Nature of the assay: Antimicrobial activity against Pseudomonas aeruginosa PA4 under iron-deficient condition by CLSI protocol based broth microdilution method.
The subject of assay [11] is Pseudomonas aeruginosa. Briefly: Antimicrobial activity against Pseudomonas aeruginosa PA6 under iron-sufficient condition by CLSI protocol based broth microdilution method.
For assay [12], the system named is Pseudomonas aeruginosa. Briefly: Antimicrobial activity against Pseudomonas aeruginosa PA6 under iron-deficient condition by CLSI protocol based broth microdilution method.
For assay [13], the system named is Escherichia coli. Nature of the assay: Antimicrobial activity against Escherichia coli ATCC 25922 under iron-sufficient condition by CLSI protocol based broth microdilution method.
In assay [14] the test system is Escherichia coli. Nature of the assay: Antimicrobial activity against Escherichia coli ATCC 25922 under iron-deficient condition by CLSI protocol based broth microdilution method.
For assay [15], the system named is Klebsiella pneumoniae. Nature of the assay: Antimicrobial activity against Klebsiella pneumoniae ATCC 8303 under iron-sufficient condition by CLSI protocol based broth microdilution method.
The subject of assay [16] is Klebsiella pneumoniae. Nature of the assay: Antimicrobial activity against Klebsiella pneumoniae X68 under iron-sufficient condition by CLSI protocol based broth microdilution method.
Assay [17] deals with Klebsiella pneumoniae. Briefly: Antimicrobial activity against Klebsiella pneumoniae ATCC 8303 under iron-deficient condition by CLSI protocol based broth microdilution method.
Assay [18] concerns Klebsiella pneumoniae. Nature of the assay: Antimicrobial activity against Klebsiella pneumoniae X68 under iron-deficient condition by CLSI protocol based broth microdilution method.
Another assay deals with Enterococcus faecium. Briefly: Antimicrobial activity against Enterococcus faecium NCTC after 18 hrs by CLSI protocol based broth microdilution method.
For the next assay, the system named is Staphylococcus aureus. Briefly: Antimicrobial activity against Staphylococcus aureus SG 511 after 18 hrs by CLSI protocol based broth microdilution method. The following applies: SG 511, 18 h.
Assay [19] concerns Klebsiella pneumoniae. Nature of the assay: Antimicrobial activity against Klebsiella pneumoniae 700603 after 18 hrs by CLSI protocol based broth microdilution method. The following applies: Klebsiella pneumoniae, 700603, 18 h.
A further assay has as its system Acinetobacter baumannii. Nature of the assay: Antimicrobial activity against Acinetobacter baumannii ATCC 17961 after 18 hrs by CLSI protocol based broth microdilution method. The following applies: ATCC 17961, 18 h.
In assay [20] the test system is Pseudomonas aeruginosa. Nature of the assay: Antimicrobial activity against Pseudomonas aeruginosa ATCC 27853 after 18 hrs by CLSI protocol based broth microdilution method. The following applies: ATCC 27853, 18 h.
The subject of the next assay is Klebsiella aerogenes. Nature of the assay: Antimicrobial activity against Enterobacter aerogenes ATCC 35029 after 18 hrs by CLSI protocol based broth microdilution method. The following applies: ATCC 35029, 18 h.
Assay [21] concerns Escherichia coli. Briefly: Antimicrobial activity against Escherichia coli ATCC 25922 after 18 hrs by CLSI protocol based broth microdilution method. The following applies: ATCC 25922, 18 h.

≈ marks a conversion by molar mass, not a printed value.

As to `CC1(C)S[C@@H]2[C@H](NC(=O)[C@H](NC(=O)CCC(=O)NC(CCCNC(=O)c3cccc(O)c3O)(CCCNC(=O)c3cccc(O)c3O)CCCNC(=O)c3cccc(O)c3O)c3ccccc3)C(=O)N2[C@H]1C(=O)O`, the MIC90 in the assay with Pseudomonas aeruginosa [1] was 33 µM (≈ 34.4 µg/mL); with Pseudomonas aeruginosa [2], 0.05 µM (≈ 0.0521 µg/mL); against Pseudomonas aeruginosa [3], 12.5 to 33 µM (≈ 13 to 34.4 µg/mL); against Pseudomonas aeruginosa [4], 0.05 to 0.067 µM (≈ 0.0521 to 0.0698 µg/mL); against Pseudomonas aeruginosa [5], 12.5 µM (≈ 13 µg/mL); against Pseudomonas aeruginosa [6], 0.067 µM (≈ 0.0698 µg/mL). In addition, the MIC90 with Pseudomonas aeruginosa [7] was 50 µM (≈ 52.1 µg/mL); with Pseudomonas aeruginosa [8], 0.39 µM (≈ 0.406 µg/mL); against Pseudomonas aeruginosa [9], 25 µM (≈ 26.1 µg/mL); in the assay with Pseudomonas aeruginosa [10], 0.39 µM (≈ 0.406 µg/mL); in the assay on Pseudomonas aeruginosa [11], above 200 µM; with Pseudomonas aeruginosa [12], above 200 µM. Also, the MIC90 in the assay on Escherichia coli [13] is 150 µM (≈ 156 µg/mL); in the assay with Escherichia coli [14] it was 1.56 µM (≈ 1.63 µg/mL); with Klebsiella pneumoniae [15] it was above 200 µM; against Klebsiella pneumoniae [16], above 200 µM; against Klebsiella pneumoniae [17], above 100 µM; in the assay on Klebsiella pneumoniae [18], above 100 µM.

Regarding `O=C(CCC(=O)N(O)CCCCCO)NCCCCCN(O)C(=O)CCC(=O)NCCCCCN(O)C(=O)CCC(=O)N1CCN(c2cc3c(cc2F)c(=O)c(C(=O)O)cn3C2CC2)CC1`, the minimal inhibitory concentration (MIC) against Enterococcus faecium is 64 µM (≈ 59.7 µg/mL); against Staphylococcus aureus, 1 µM (≈ 0.933 µg/mL); with Klebsiella pneumoniae [19] it was above 128 µM; in the assay with Acinetobacter baumannii it was at least 128 µM; against Pseudomonas aeruginosa [20] it was above 128 µM; in the assay on Klebsiella aerogenes it was 64 µM (≈ 59.7 µg/mL). In addition, in the assay on Escherichia coli [21], the MIC was above 128 µM.

`CC1(C)S[C@@H]2[C@H](NC(=O)[C@H](NC(=O)CCC(=O)NC(CCCNC(=O)c3cccc(O)c3O)(CCCNC(=O)c3cccc(O)c3O)CCCNC(=O)c3cccc(O)c3O)c3ccc(O)cc3)C(=O)N2[C@H]1C(=O)O`: the MIC90 against Pseudomonas aeruginosa [1] was 25 µM (≈ 26.5 µg/mL); in the assay with Pseudomonas aeruginosa [2] it was 0.05 µM (≈ 0.0529 µg/mL); in the assay with Pseudomonas aeruginosa [3], 12.5 to 25 µM (≈ 13.2 to 26.5 µg/mL); against Pseudomonas aeruginosa [4] it was 0.05 to 0.083 µM (≈ 0.0529 to 0.0878 µg/mL); with Pseudomonas aeruginosa [5], 12.5 µM (≈ 13.2 µg/mL); with Pseudomonas aeruginosa [6], 0.083 µM (≈ 0.0878 µg/mL). Further, the MIC90 against Pseudomonas aeruginosa [7] was 50 µM (≈ 52.9 µg/mL); in the assay on Pseudomonas aeruginosa [8], 0.39 µM (≈ 0.413 µg/mL); against Pseudomonas aeruginosa [9], 25 µM (≈ 26.5 µg/mL); with Pseudomonas aeruginosa [10], 0.21 µM (≈ 0.222 µg/mL); with Pseudomonas aeruginosa [11], above 200 µM; with Pseudomonas aeruginosa [12] it was above 200 µM. The MIC90 against Escherichia coli [13] is 100 µM (≈ 106 µg/mL); against Escherichia coli [14], 6.25 µM (≈ 6.61 µg/mL); against Klebsiella pneumoniae [15] it was above 200 µM; in the assay on Klebsiella pneumoniae [16] it was above 200 µM; against Klebsiella pneumoniae [17] it was above 100 µM; against Klebsiella pneumoniae [18], above 100 µM.

Regarding `CC1(C)S[C@@H]2[C@H](NC(=O)[C@H](N)c3ccc(O)cc3)C(=O)N2[C@H]1C(=O)O` [AMOXICILLIN], the MIC90 is above 200 µM against Pseudomonas aeruginosa [1]; above 200 µM against Pseudomonas aeruginosa [2]; 0.46 to 200 µM (≈ 0.168 to 73.1 µg/mL) with Pseudomonas aeruginosa [3]; 0.39 to 200 µM (≈ 0.143 to 73.1 µg/mL) in the assay on Pseudomonas aeruginosa [4]; 0.46 µM (≈ 0.168 µg/mL) in the assay with Pseudomonas aeruginosa [5]; 0.39 µM (≈ 0.143 µg/mL) in the assay on Pseudomonas aeruginosa [6]. In addition, the MIC90 against Pseudomonas aeruginosa [7] is above 200 µM; against Pseudomonas aeruginosa [8] it was above 100 µM; against Pseudomonas aeruginosa [9], above 200 µM; against Pseudomonas aeruginosa [10], above 100 µM; in the assay with Pseudomonas aeruginosa [11], above 200 µM; against Pseudomonas aeruginosa [12] it was above 200 µM. The MIC90 was 4.17 µM (≈ 1.52 µg/mL) against Escherichia coli [13]; 4.17 µM (≈ 1.52 µg/mL) against Escherichia coli [14]; 100 µM (≈ 36.5 µg/mL) against Klebsiella pneumoniae [15]; 100 µM (≈ 36.5 µg/mL) with Klebsiella pneumoniae [16]; above 100 µM against Klebsiella pneumoniae [17]; above 100 µM against Klebsiella pneumoniae [18].

For the molecule `CC1(C)S[C@@H]2[C@H](NC(=O)[C@H](N)c3ccccc3)C(=O)N2[C@H]1C(=O)O` [AMPICILLIN], the MIC90 with Pseudomonas aeruginosa [1] is above 200 µM; in the assay on Pseudomonas aeruginosa [2], above 200 µM; with Pseudomonas aeruginosa [3] it was 0.52 to 200 µM (≈ 0.182 to 69.9 µg/mL); with Pseudomonas aeruginosa [4] it was 0.78 to 200 µM (≈ 0.273 to 69.9 µg/mL); against Pseudomonas aeruginosa [5], 0.52 µM (≈ 0.182 µg/mL); against Pseudomonas aeruginosa [6], 0.78 µM (≈ 0.273 µg/mL). In addition, the MIC90 against Pseudomonas aeruginosa [7] is above 200 µM; against Pseudomonas aeruginosa [8] it was above 100 µM; with Pseudomonas aeruginosa [9], above 200 µM; in the assay with Pseudomonas aeruginosa [10] it was above 100 µM; against Pseudomonas aeruginosa [11], above 200 µM; in the assay on Pseudomonas aeruginosa [12], above 200 µM. Besides, the MIC90 is 16.7 µM (≈ 5.84 µg/mL) in the assay on Escherichia coli [13]; 12.5 µM (≈ 4.37 µg/mL) against Escherichia coli [14]; above 200 µM with Klebsiella pneumoniae [15]; above 200 µM against Klebsiella pneumoniae [16]; above 100 µM in the assay on Klebsiella pneumoniae [17]; above 100 µM against Klebsiella pneumoniae [18].

For the molecule `N[C@@H](C(=O)N[C@@H]1C(=O)N2C(C(=O)O)=C(Cl)CC[C@H]12)c1ccccc1` [LORACARBEF ANHYDROUS], the minimum inhibitory concentration (MIC) against Enterococcus faecium is 32 µM (≈ 11.2 µg/mL); against Staphylococcus aureus, 1 µM (≈ 0.35 µg/mL); in the assay on Klebsiella pneumoniae [19], 128 µM (≈ 44.8 µg/mL); with Acinetobacter baumannii it was above 128 µM; in the assay with Pseudomonas aeruginosa [20], above 128 µM; against Klebsiella aerogenes, above 128 µM. This molecule returned a minimal inhibitory concentration (MIC) in the assay with Escherichia coli [21] of 2 µM (≈ 0.7 µg/mL).
